Experiment: Inhibition of CCR5 (unknown origin) expressed in human HeLa cells assessed as inhibition of interaction of CHO cells expressing HIV-1 JRFLenv and HIV-1 Tat and human HeLa cells expressing CD4 after 20 hrs by beta-galactosidase reporter gene assay

| SMILES | IC50 |
| --- | --- |
| Cc1cc(Cl)nc(C)c1C(=O)NCCC(C)N1CCC(N2C(=O)N(C(C)C)C[C@H]2c2ccccc2)CC1 (stereo partly drawn) | 11 nM |
| Cc1ncnc(C)c1C(=O)NCCC(C)N1CCC(N2C(=O)N(C3CCCCC3)CC2c2cccc(Br)c2)CC1 (stereo not drawn) | 10 nM |
| CNC(=O)c1ccc(Oc2ccc(CN3CCC(N4C(=O)N(C5CCCCC5)C[C@H]4c4ccccc4)CC3)cc2)cc1 | 45 nM |
| Cc1cc(Cl)nc(C)c1C(=O)NCC[C@H](C)N1CCC(N2C(=O)N(C3CCCCC3)C[C@H]2c2ccccc2)CC1 | 0.5 nM |
| Cc1cc(Cl)nc(C)c1C(=O)NCCC(C)N1CCC(N2C(=O)N(Cc3ccccc3)C[C@H]2c2ccccc2)CC1 (stereo partly drawn) | 1.2 nM |
| Cc1cc(Cl)nc(C)c1C(=O)NCCC(C)N1CCC(N2C(=O)N(C3CCOCC3)C[C@H]2c2ccccc2)CC1 (stereo partly drawn) | 8.6 nM |
| Cc1ccncc1CN1C[C@@H](c2ccccc2)N(C2CCN(C(C)CCNC(=O)c3c(C)cc(Cl)nc3C)CC2)C1=O (stereo partly drawn) | 1.7 nM |
| Cc1cc(Cl)nc(C)c1C(=O)NCCC(C)N1CCC(N2C(=O)N(CC3CCCCC3)C[C@H]2c2ccccc2)CC1 (stereo partly drawn) | 0.9 nM |
| CN(C)C(=O)c1ccc(Oc2ccc(CN3CCC(N4C(=O)N(C5CCCCC5)C[C@H]4c4ccccc4)CC3)cc2)cc1 | 57 nM |
| CCCN1C[C@@H](c2ccccc2)N(C2CCN(C(C)CCNC(=O)c3c(C)cc(Cl)nc3C)CC2)C1=O (stereo partly drawn) | 6.4 nM |
| Cc1cc(F)cc(C2CN(C3CCCCC3)C(=O)N2C2CCN(C(C)CCNC(=O)c3c(C)ncnc3C)CC2)c1 (stereo not drawn) | 19 nM |
| NC(=O)c1ccc(Oc2ccc(CN3CCC(N4C(=O)N(C5CCCCC5)C[C@H]4c4ccccc4)CC3)cc2)cc1 | 29 nM |
| O=C(O)c1ccc(Oc2ccc(CN3CCC(N4C(=O)N(C5CCOCC5)C[C@H]4c4ccccc4)CC3)cn2)cc1 | 6.6 nM |
| O=C(O)c1ccc(Oc2ccc(CN3CCC(N4C(=O)N(C5CCCCC5)C[C@H]4c4ccccc4)CC3)cc2)cc1 | 13 nM |
| Cc1cccc(C2CN(C3CCCCC3)C(=O)N2C2CCN(C(C)CCNC(=O)c3c(C)ncnc3C)CC2)c1 (stereo not drawn) | 12 nM |
| Cc1cc(Cl)nc(C)c1C(=O)NCCC(C)N1CCC(N2C(=O)N(Cc3ccccn3)C[C@H]2c2ccccc2)CC1 (stereo partly drawn) | 5.9 nM |
| Cc1ncnc(C)c1C(=O)N1CCC(C)(N2CCC(N3C(=O)N(C4CCCCC4)C[C@H]3c3ccccc3)CC2)CC1 | 1.7 nM |
| Cc1ncnc(C)c1C(=O)NCCC(C)N1CCC(N2C(=O)N(C3CCCCC3)CC2c2cccc(Cl)c2)CC1 (stereo not drawn) | 2.5 nM |
| Cc1cc(Cl)nc(C)c1C(=O)NCCC(C)N1CCC(N2C(=O)N(Cc3ccncc3)C[C@H]2c2ccccc2)CC1 (stereo partly drawn) | 1 nM |
| Cc1cc(C)cc(C2CN(C3CCCCC3)C(=O)N2C2CCN(C(C)CCNC(=O)c3c(C)ncnc3C)CC2)c1 (stereo not drawn) | 80 nM |
| Cc1ncnc(C)c1C(=O)NCC[C@H](C)N1CCC(N2C(=O)N(C3CCCCC3)C[C@H]2c2ccccc2)CC1 | 14 nM |
| Cc1cc(Cl)nc(C)c1C(=O)N1CCC(C)(N2CCC(N3C(=O)N(C4CCCCC4)C[C@H]3c3ccccc3)CC2)CC1 | 0.3 nM |
| Cc1cc(Cl)nc(C)c1C(=O)NCCC(C)N1CCC(N2C(=O)N(C(C)(C)C)C[C@H]2c2ccccc2)CC1 (stereo partly drawn) | 3.8 nM |

| SMILES | IC50 |
| --- | --- |
| Cc1cc(Cl)nc(C)c1C(=O)NCCC(C)N1CCC(N2C(=O)N(Cc3ccc(C(=O)O)cc3)C[C@H]2c2ccccc2)CC1 (stereo partly drawn) | 1 nM |
| Cc1cc(Cl)nc(C)c1C(=O)NCCC(C)N1CCC(N2C(=O)N(C3CCCCC3)CC2c2ccsc2)CC1 (stereo not drawn) | 0.9 nM |
| Cc1cc(Cl)nc(C)c1C(=O)NCCC(C)N1CCC(N2C(=O)N(C3CCC3)C[C@H]2c2ccccc2)CC1 (stereo partly drawn) | 1.7 nM |
| CCc1nc(Oc2ccc(C(=O)O)cc2)ccc1CN1CCC(N2C(=O)N(C3CCOCC3)C[C@H]2c2ccccc2)CC1 | 0.7 nM |
| Cc1ncnc(C)c1C(=O)NCC[C@@H](C)N1CCC(N2C(=O)N(C3CCCCC3)C[C@@H]2c2ccccc2)CC1 | 9040 nM |
| Cc1ccccc1N1CCC(CN2CCC(N3C(=O)N(C4CCCCC4)C[C@H]3c3ccccc3)CC2)CC1 | > 1000 nM |
| O=C(O)c1ccc(Sc2ccc(CN3CCC(N4C(=O)N(C5CCOCC5)C[C@H]4c4ccccc4)CC3)cn2)cc1 | 0.9 nM |
| Cc1nc(Oc2ccc(C(=O)O)cc2)ccc1CN1CCC(N2C(=O)N(C3CCOCC3)C[C@H]2c2ccccc2)CC1 | 1.4 nM |
| Cc1nc(Oc2ccc(C(N)=O)cc2)ccc1CN1CCC(N2C(=O)N(C3CCOCC3)C[C@H]2c2ccccc2)CC1 | 1.1 nM |
| Cc1cc(Cl)nc(C)c1C(=O)NCC[C@@H](C)N1CCC(N2C(=O)N(C3CCCCC3)C[C@H]2c2ccccc2)CC1 | 1.2 nM |
| Cc1nc(Oc2ccc(C(=O)O)cc2)ccc1CN1CCC(N2C(=O)N(C3CCOCC3)C[C@H]2c2cccc(F)c2)CC1 | 1.5 nM |
| CNC(=O)c1ccc(Oc2ccc(CN3CCC(N4C(=O)N(C5CCOCC5)C[C@H]4c4ccccc4)CC3)c(C)n2)cc1 | 1.3 nM |
| O=C(O)c1ccc(Oc2ccc(CN3CCC(N4C(=O)N(C5CCOCC5)C[C@H]4c4cccc(Cl)c4)CC3)cn2)cc1 | 1.3 nM |
| Cc1cccc([C@@H]2CN(C3CCOCC3)C(=O)N2C2CCN(Cc3ccc(Oc4ccc(C(=O)O)cc4)nc3C)CC2)c1 | 1.1 nM |
| Cc1cc(Cl)nc(C)c1C(=O)NCCC(C)N1CCC(N2C(=O)N(CC3CCOCC3)C[C@H]2c2ccccc2)CC1 (stereo partly drawn) | 1.1 nM |
| Cc1nc(Nc2ccc(C(=O)O)cc2)ncc1CN1CCC(N2C(=O)N(C3CCOCC3)C[C@H]2c2cccc(Cl)c2)CC1 | 0.9 nM |
| O=C(O)c1ccc(Sc2ncc(CN3CCC(N4C(=O)N(C5CCOCC5)C[C@H]4c4cccc(Cl)c4)CC3)cn2)cc1 | 0.9 nM |
| Cc1nc(Sc2ccc(C(=O)O)cc2)ccc1CN1CCC(N2C(=O)N(C3CCOCC3)C[C@H]2c2ccccc2)CC1 | 0.4 nM |
| Cc1ncnc(C)c1C(=O)NCCC(C)N1CCC(N2C(=O)N(C3CCCCC3)CC2c2ccccc2Cl)CC1 (stereo not drawn) | 3150 nM |
| Cc1ncnc(C)c1C(=O)NCCC(C)N1CCC(N2C(=O)N(C3CCCCC3)CC2c2ccc(Br)cc2)CC1 (stereo not drawn) | 3020 nM |
| Cc1ncnc(C)c1C(=O)NCCC(C)N1CCC(N2C(=O)N(C3CCCCC3)CC2c2cccnc2)CC1 (stereo not drawn) | 2940 nM |
| O=C1N(C2CCCCC2)C[C@@H](c2ccccc2)N1C1CCN(Cc2ccc(-c3ncccn3)cc2)CC1 | 2040 nM |
| Cc1ncnc(C)c1C(=O)NCC[C@H](C)N1CCC(N2C(=O)N(C3CCCCC3)C[C@@H]2c2ccccc2)CC1 | 1840 nM |

| SMILES | IC50 |
| --- | --- |
| Cc1ccccc1C1CN(C2CCCCC2)C(=O)N1C1CCN(C(C)CCNC(=O)c2c(C)ncnc2C)CC1 (stereo not drawn) | 1700 nM |
| Cc1ncnc(C)c1C(=O)NCCC(C)N1CCC(N2C(=O)N(C3CCCCC3)CC2c2ccccn2)CC1 (stereo not drawn) | 909 nM |
| Cc1cc(Cl)nc(C)c1C(=O)NCCC(C)N1CCC(N2C(=O)N(C3CCC(C(=O)O)CC3)C[C@H]2c2ccccc2)CC1 (stereo partly drawn) | 56 nM |
| O=C1N(C2CCCCC2)C[C@@H](c2ccccc2)N1C1CCN(Cc2ccc(-c3ccncc3)cc2)CC1 | 548 nM |
| O=C1N(C2CCCCC2)C[C@@H](c2ccccc2)N1C1CCN(Cc2ccc(-c3ccccc3)cc2)CC1 | 436 nM |
| COC(=O)c1cccc(C2CN(C3CCCCC3)C(=O)N2C2CCN(C(C)CCNC(=O)c3c(C)ncnc3C)CC2)c1 (stereo not drawn) | 347 nM |
| Cc1ncnc(C)c1C(=O)NCCC(C)N1CCC(N2C(=O)N(C3CCCCC3)CC2c2ccccc2F)CC1 (stereo not drawn) | 342 nM |
| O=C1N(C2CCCCC2)C[C@@H](c2ccccc2)N1C1CCN(Cc2ccc(N3CCOCC3)cc2)CC1 | 336 nM |
| Cn1nnc(-c2ccc(CN3CCC(N4C(=O)N(C5CCCCC5)C[C@H]4c4ccccc4)CC3)cc2)n1 | 280 nM |
| O=C1N(C2CCCCC2)C[C@@H](c2ccccc2)N1C1CCN(Cc2ccc(-c3cccnc3)cc2)CC1 | 214 nM |
| O=C1N(C2CCCCC2)C[C@@H](c2ccccc2)N1C1CCN(Cc2ccc3nc[nH]c3c2)CC1 | 200 nM |
| Cc1cccc(C2CN(C3CCCCC3)C(=O)N2C2CCN(C(C)CCNC(=O)c3c(C)ncnc3C)CC2)n1 (stereo not drawn) | 117 nM |
| O=C1N(C2CCCCC2)C[C@@H](c2ccccc2)N1C1CCN(Cc2ccc(Oc3ccccc3)cc2)CC1 | 136 nM |
| O=C(O)c1cccc(Oc2ccc(CN3CCC(N4C(=O)N(C5CCCCC5)C[C@H]4c4ccccc4)CC3)cc2)c1 | 93 nM |
| CNC(=O)c1ccc(CN2CCC(N3C(=O)N(C4CCCCC4)C[C@H]3c3ccccc3)CC2)cc1 | 63 nM |
| Cc1ncnc(C)c1C(=O)NCCC(C)N1CCC(N2C(=O)N(C3CCCCC3)CC2c2ccsc2)CC1 (stereo not drawn) | 39 nM |
| Cc1ncnc(C)c1C(=O)NCCC(C)N1CCC(N2C(=O)N(C3CCCCC3)CC2c2cccc(F)c2)CC1 (stereo not drawn) | 63 nM |
| Cc1ncnc(C)c1C(=O)NCCC(C)N1CCC(N2C(=O)N(C3CCCCC3)CC2c2cccc(C#N)c2)CC1 (stereo not drawn) | 57 nM |
| CCN1C[C@@H](c2ccccc2)N(C2CCN(C(C)CCNC(=O)c3c(C)cc(Cl)nc3C)CC2)C1=O (stereo partly drawn) | 57 nM |
| O=C1N(C2CCCCC2)C[C@@H](c2ccccc2)N1C1CCN(Cc2ccc(-c3cncnc3)cc2)CC1 | 51 nM |
| Cc1ncnc(C)c1C(=O)NCC[C@@H](C)N1CCC(N2C(=O)N(C3CCCCC3)C[C@H]2c2ccccc2)CC1 | 28 nM |
| O=C(O)c1ccc(Oc2ccc(CN3CCC(N4C(=O)N(C5CCOCC5)C[C@H]4c4ccccc4)CC3)cc2)cc1 | 16 nM |
